For 25 compounds, IC50 results are on record in patent US20240400561A1, “NOVEL SUBSTITUTED SULFONYLUREA COMPOUNDS AS INHIBITORS OF INTERLEUKIN-1 ACTIVITY” (Viva Star Biosciences (Suzhou) Co., Ltd., priority 2021, published 2024).

Structures are written as SMILES. Some results are limits rather than exact numbers.

The target in the assay is T1, NLRP3 (Homo sapiens, UniProt Q96P20).
T1 construct: Seed THP-1 cells (5.56*10^5 cells/mL) containing 1.0 ug/mL LPS; endogenous in cells; host or cells: THP-1 cells
T1 sequence (Q96P20 whole entry): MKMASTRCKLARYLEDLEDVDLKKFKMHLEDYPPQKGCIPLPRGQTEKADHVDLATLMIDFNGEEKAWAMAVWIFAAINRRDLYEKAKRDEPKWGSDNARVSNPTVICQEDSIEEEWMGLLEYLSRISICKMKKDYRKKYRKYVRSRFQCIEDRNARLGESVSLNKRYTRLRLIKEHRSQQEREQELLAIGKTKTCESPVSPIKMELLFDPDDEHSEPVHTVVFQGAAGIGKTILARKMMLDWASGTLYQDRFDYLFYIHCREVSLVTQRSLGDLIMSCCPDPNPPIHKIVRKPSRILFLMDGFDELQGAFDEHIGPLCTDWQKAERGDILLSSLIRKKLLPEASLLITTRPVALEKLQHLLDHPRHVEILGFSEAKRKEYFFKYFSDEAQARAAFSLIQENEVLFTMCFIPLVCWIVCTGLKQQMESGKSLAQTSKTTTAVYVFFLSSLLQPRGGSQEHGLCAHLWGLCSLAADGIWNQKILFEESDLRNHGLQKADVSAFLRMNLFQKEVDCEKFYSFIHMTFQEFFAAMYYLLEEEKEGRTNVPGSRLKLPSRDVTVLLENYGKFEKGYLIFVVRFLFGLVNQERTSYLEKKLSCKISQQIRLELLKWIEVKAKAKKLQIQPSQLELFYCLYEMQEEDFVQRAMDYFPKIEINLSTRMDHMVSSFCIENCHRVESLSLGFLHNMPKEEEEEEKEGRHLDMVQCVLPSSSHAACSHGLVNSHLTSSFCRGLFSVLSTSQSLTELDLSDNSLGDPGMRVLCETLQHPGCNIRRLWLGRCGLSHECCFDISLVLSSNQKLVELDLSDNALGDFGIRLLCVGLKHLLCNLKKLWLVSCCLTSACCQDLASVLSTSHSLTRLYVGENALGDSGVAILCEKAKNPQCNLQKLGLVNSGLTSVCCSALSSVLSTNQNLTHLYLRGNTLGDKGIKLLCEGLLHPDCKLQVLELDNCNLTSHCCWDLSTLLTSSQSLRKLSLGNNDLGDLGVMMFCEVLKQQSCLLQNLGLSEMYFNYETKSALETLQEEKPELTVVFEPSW
Nature of the assay: THP-1 cell assay (LPS priming, nigericin), IL1β release by HTRF; called pyroptosis assay, THP IC50. To be noted: NLRP3 inhibitory activity; THP-1 cells, 1.0 ug/mL LPS, compound 3 hrs, nigericin 5 uM 1 hr, IL1β in supernatant. Format: cell-based. Here is the method:
The following method was used for compound screening. • 1. Seed THP-1 cells (5.56*10^5 cells/mL) containing 1.0 ug/mL LPS (SIGMA, L6529) in 45 uL RPMI 1640 medium (without FBS) into 384-well plate (Thermo Scientific, 164688). • 2. Add 5 uL compound (10 doses starting from 5 uM, 1:3 dilution) or vehicle (0.05% DMSO in medium) to the appropriate wells. • 3. Centrifuge the plates at 1000 rpm for 2 mins and incubate for 3 hrs at 37° C., 5% CO2. • 4. Add 5 uL nigericin (MEC, HY-100381) (final conc. 5 uM) to sample wells and positive control wells; add 5 uL RPMI 1640 medium to negative control wells. • 5. Centrifuge plates at 1000 rpm for 2 mins and incubate for 1 hr at 37° C., 5% CO2. • 6. At the end of the incubation period, centrifuge plates at 1000 rpm for 6 mins and transfer 8 uL supernatant into 384-well assay plates (PerkinElmer, 6008280). • 7. Add 8 ul RPMI 1640 medium into each well and spin down for 10 secs. • 8. Prepare the standard solutions and pre-mixed IL1β antibody solution of Human […] kits (PerkinElmer, 62HIL1BPEH) according to the instruction. • 9. Add 16 uL standard solutions into clear wells of 384-well assay plates. • 10. Add 4 uL pre-mixed IL1β antibody solution to all wells including sample wells, positive control wells, negative control wells and standard solutions wells. • 11. Seal the plates, spin down for 10 secs, incubation for overnight at RT and read on an HTRF® compatible reader (BMG LABTECH, PHERAstar FS). • 12. The concentrations of IL1β for treated wells are calculated by the standard curve. • 13. The IC50 data is fitted to a non-liner regression equation (log inhibitor vs. response—Variable slope four parameters)).
For orientation: Time-resolved FRET reads energy transfer from a long-lived donor to a nearby acceptor.
Broadly, the IC50 is the point on the concentration scale where inhibition reaches its midpoint. `Cc1cc2c(c(NC(=O)NS(=O)(=O)C3CC(OC4CC4)C3)c1-c1ccn3nccc3c1)CCC2` (stereo not shown) [Example 75, 3-cyclopropoxy-N-((6-methyl-5-(pyrazolo[1,5-a]pyridin-5-yl)-2,3-dihydro-1H-inden-4-yl)carbamoyl)cyclobutane-1-sulfonamide] came in with a half-inhibitory concentration (IC50) of 30 to 300 nM.
Consider `CO[C@H](C)Cn1ccc(S(=O)(=O)NC(=O)Nc2c3c(cc(C)c2-c2ccn4nccc4c2)CCC3)n1` [Example 27, (R)-1-(2-methoxypropyl)-N-((6-methyl-5-(pyrazolo[1,5-a]pyridin-5-yl)-2,3-dihydro-1H-inden-4-yl)carbamoyl)-1H-pyrazole-3-sulfonamide], for which the IC50 is ≤ 30 nM.
To `CC(C)(O)c1csc(S(=O)(=O)NC(=O)Nc2c(-c3ccnc4[nH]ccc34)ccc3c2CCC3)c1` [Example 40, N-((5-(1H-pyrrolo[2,3-b]pyridin-4-yl)-2,3-dihydro-1H-inden-4-yl)carbamoyl)-4-(2-hydroxypropan-2-yl)thiophene-2-sulfonamide] belongs ≤ 30 nM.
To `Cc1cc2c(c(NC(=O)NS(=O)(=O)c3cncc(C4CCC4)c3)c1-c1ccn3nccc3c1)CCC2` [Example 84, 5-cyclobutyl-N-((6-methyl-5-(pyrazolo[1,5-a]pyridin-5-yl)-2,3-dihydro-1H-inden-4-yl)carbamoyl)pyridine-3-sulfonamide] belongs ≤ 30 nM.
As to `CC(C)(O)c1csc(S(=O)(=O)NC(=O)Nc2c(-c3ccn4cncc4c3)ccc3c2CCC3)c1` [Example 54, 4-(2-hydroxypropan-2-yl)-N-((5-(imidazo[1,5-a]pyridin-7-yl)-2,3-dihydro-1H-inden-4-yl)carbamoyl)thiophene-2-sulfonamide], the IC50 is ≤ 30 nM.
To `CC(C)(O)c1csc(S(=O)(=O)NC(=O)Nc2c(-c3ccn4ncnc4c3)ccc3c2CCC3)c1` [Example 53, N-((5-([1,2,4]triazolo[1,5-a]pyridin-7-yl)-2,3-dihydro-1H-inden-4-yl)carbamoyl)-4-(2-hydroxypropan-2-yl)thiophene-2-sulfonamide] belongs ≤ 30 nM; to `CC(C)(O)c1csc(S(=O)(=O)NC(=O)Nc2c(-c3ccn4cnnc4c3)ccc3c2CCC3)c1` [Example 63, N-((5-([1,2,4]triazolo[4,3-a]pyridin-7-yl)-2,3-dihydro-1H-inden-4-yl)carbamoyl)-4-(2-hydroxypropan-2-yl)thiophene-2-sulfonamide], ≤ 30 nM; to `CC(C)(O)c1csc(S(=O)(=O)NC(=O)Nc2c(-c3ccnc4c3ccn4C3COC3)ccc3c2CCC3)c1` [Example 59, 4-(2-hydroxypropan-2-yl)-N-((5-(1-(oxetan-3-yl)-1H-pyrrolo[2,3-b]pyridin-4-yl)-2,3-dihydro-1H-inden-4-yl)carbamoyl)thiophene-2-sulfonamide], 30 to 300 nM.
Under `O=C(Nc1c(-c2ccnc3[nH]ccc23)ccc2c1CCC2)NS(=O)(=O)c1cnn(CC2CC2)c1` [Example 5, N-((5-(1H-pyrrolo[2,3-b]pyridin-4-yl)-2,3-dihydro-1H-inden-4-yl)carbamoyl)-1-(cyclopropylmethyl)-1H-pyrazole-4-sulfonamide] stands ≤ 30 nM; under `Cn1ccc2c(-c3ccc4c(c3NC(=O)NS(=O)(=O)c3cnn(CC5CC5)c3)CCC4)ccnc21` [Example 4, 1-(cyclopropylmethyl)-N-((5-(1-methyl-1H-pyrrolo[2,3-b]pyridin-4-yl)-2,3-dihydro-1H-inden-4-yl)carbamoyl)-1H-pyrazole-4-sulfonamide], 30 to 300 nM; under `Cc1cc2c(c(NC(=O)NS(=O)(=O)c3ccn(CC4CCC4)n3)c1-c1ccn3nccc3c1)CCC2` [Example 11, 1-(cyclobutylmethyl)-N-((6-methyl-5-(pyrazolo[1,5-a]pyridin-5-yl)-2,3-dihydro-1H-inden-4-yl)carbamoyl)-1H-pyrazole-3-sulfonamide], ≤ 30 nM.
To `Cc1cc2c(c(NC(=O)NS(=O)(=O)c3cc(C(C)(C)O)cs3)c1-c1ccn3cncc3c1)CCC2` [Example 69, 4-(2-hydroxypropan-2-yl)-N-((5-(imidazo[1,5-a]pyridin-7-yl)-6-methyl-2,3-dihydro-1H-inden-4-yl)carbamoyl)thiophene-2-sulfonamide] belongs ≤ 30 nM; to `Cc1cc2c(c(NC(=O)NS(=O)(=O)c3ccn(CC4CC4)n3)c1-c1ccn3nccc3c1)OCC2` [Example 86, 1-(cyclopropylmethyl)-N-((5-methyl-6-(pyrazolo[1,5-a]pyridin-5-yl)-2,3-dihydrobenzofuran-7-yl)carbamoyl)-1H-pyrazole-3-sulfonamide], 30 to 300 nM.
Regarding `CC(C)(O)c1csc(S(=O)(=O)NC(=O)Nc2c(-c3ccn4ccnc4c3)ccc3c2CCC3)c1` [Example 42, 4-(2-hydroxypropan-2-yl)-N-((5-(imidazo[1,2-a]pyridin-7-yl)-2,3-dihydro-1H-inden-4-yl)carbamoyl)thiophene-2-sulfonamide], the IC50 is ≤ 30 nM.
To `CC(C)(O)c1csc(S(=O)(=O)NC(=O)Nc2c(-c3ccnc4c3ccn4C3CCOC3)ccc3c2CCC3)c1` (stereo not shown) [Example 58, 4-(2-hydroxypropan-2-yl)-N-((5-(1-(tetrahydrofuran-3-yl)-1H-pyrrolo[2,3-b]pyridin-4-yl)-2,3-dihydro-1H-inden-4-yl)carbamoyl)thiophene-2-sulfonamide] belongs 30 to 300 nM; to `CN1CCC(n2ccc3c(-c4ccc5c(c4NC(=O)NS(=O)(=O)c4cc(C(C)(C)O)cs4)CCC5)ccnc32)CC1` [Example 55, 4-(2-hydroxypropan-2-yl)-N-((5-(1-(1-methylpiperidin-4-yl)-1H-pyrrolo[2,3-b]pyridin-4-yl)-2,3-dihydro-1H-inden-4-yl)carbamoyl)thiophene-2-sulfonamide], 300 to 1000 nM; to `O=C(Nc1c2c(cc(CO)c1-c1ccn3nccc3c1)CCC2)NS(=O)(=O)c1ccn(C2CC2)n1` [Example 98, 1-cyclopropyl-N-((6-(hydroxymethyl)-5-(pyrazolo[1,5-a]pyridin-5-yl)-2,3-dihydro-1H-inden-4-yl)carbamoyl)-1H-pyrazole-3-sulfonamide], 30 to 300 nM.
With `Cc1cc2c(c(NC(=O)NS(=O)(=O)c3cnn(C4CC4)c3)c1-c1ccn3nccc3c1)CCC2` [Example 14, 1-cyclopropyl-N-((6-methyl-5-(pyrazolo[1,5-a]pyridin-5-yl)-2,3-dihydro-1H-inden-4-yl)carbamoyl)-1H-pyrazole-4-sulfonamide], the IC50 is ≤ 30 nM.
Under `CC(C)(O)c1csc(S(=O)(=O)NC(=O)Nc2c(-c3ccc4ncnn4c3)ccc3c2CCC3)c1` [Example 52, N-((5-([1,2,4]triazolo[1,5-a]pyridin-6-yl)-2,3-dihydro-1H-inden-4-yl)carbamoyl)-4-(2-hydroxypropan-2-yl)thiophene-2-sulfonamide] stands ≤ 30 nM; under `CN1CCC(n2ccc3c(-c4ccc5c(c4NC(=O)NS(=O)(=O)c4cc(C(C)(C)O)cs4)CCC5)ccnc32)C1` (stereo not shown) [Example 57, 4-(2-hydroxypropan-2-yl)-N-((5-(1-(1-methylpyrrolidin-3-yl)-1H-pyrrolo[2,3-b]pyridin-4-yl)-2,3-dihydro-1H-inden-4-yl)carbamoyl)thiophene-2-sulfonamide], 300 to 1000 nM.
To `Cc1cc2c(c(NC(=O)NS(=O)(=O)C3CC(OC4CC4)C3)c1-c1ccnc3[nH]ccc13)CCC2` (stereo not shown) [Example 3, 3-cyclopropoxy-N-((6-methyl-5-(1H-pyrrolo[2,3-b]pyridin-4-yl)-2,3-dihydro-1H-inden-4-yl)carbamoyl)cyclobutane-1-sulfonamide] belongs 30 to 300 nM.
Under `CC(C)(O)c1csc(S(=O)(=O)NC(=O)Nc2c(-c3ccn4nccc4c3)ccc3c2CCC3)c1` [Example 60, 4-(2-hydroxypropan-2-yl)-N-((5-(pyrazolo[1,5-a]pyridin-5-yl)-2,3-dihydro-1H-inden-4-yl)carbamoyl)thiophene-2-sulfonamide] stands ≤ 30 nM; under `Cc1cc2c(c(NC(=O)NS(=O)(=O)c3ccn(C4CC4)n3)c1-c1ccn3nncc3c1)CCC2` [Example 78, N-((5-([1,2,3]triazolo[1,5-a]pyridin-5-yl)-6-methyl-2,3-dihydro-1H-inden-4-yl)carbamoyl)-1-cyclopropyl-1H-pyrazole-3-sulfonamide], ≤ 30 nM; under `Cc1cc2c(c(NC(=O)NS(=O)(=O)c3ccn(C[C@@H](C)O)n3)c1-c1ccn3nccc3c1)CCC2` [Example 79, (R)-1-(2-hydroxypropyl)-N-((6-methyl-5-(pyrazolo[1,5-a]pyridin-5-yl)-2,3-dihydro-1H-inden-4-yl)carbamoyl)-1H-pyrazole-3-sulfonamide], ≤ 30 nM.
The compound `Cn1ccc2c(-c3ccc4c(c3NC(=O)NS(=O)(=O)c3cc(C(C)(C)O)cs3)CCC4)cncc21` [Example 47, 4-(2-hydroxypropan-2-yl)-N-((5-(1-methyl-1H-pyrrolo[2,3-c]pyridin-4-yl)-2,3-dihydro-1H-inden-4-yl)carbamoyl)thiophene-2-sulfonamide] registered an IC50 of 300 to 1000 nM.
